Data: publication PMC12603070, “A high-throughput screening approach to discover potential colorectal cancer chemotherapeutics: repurposing drugs to identify novel disruptors of 14-3-3 proteins” (Cell Death & Disease, 2025)
Read-outs that look alike come from different tables or passages of the source.

Tests used:
[1] = target: T1, 14-3-3ζ:BAD-112-136F interactions (Homo sapiens, UniProt P63104); test: BRET sensor screen for disruption of 14-3-3ζ-Rluc8:BAD-112-136F-mCitrine in living NIH-3T3 cells; assay type: cell-based, murine; parameters: inhibition: dose or concentration left out as unconfirmed; BRET reduction on NIH-3T3: unit not given here; details: for inhibition / inhibition at 20 µM: NIH3T3, 3 h, read-out: BRET reduction on NIH-3T3
T1 construct: expressed in transfected cells; host or cells: NIH-3T3 fibroblasts, bi-directional pBI-CMV1 plasmid
T1 sequence (P63104 1-245): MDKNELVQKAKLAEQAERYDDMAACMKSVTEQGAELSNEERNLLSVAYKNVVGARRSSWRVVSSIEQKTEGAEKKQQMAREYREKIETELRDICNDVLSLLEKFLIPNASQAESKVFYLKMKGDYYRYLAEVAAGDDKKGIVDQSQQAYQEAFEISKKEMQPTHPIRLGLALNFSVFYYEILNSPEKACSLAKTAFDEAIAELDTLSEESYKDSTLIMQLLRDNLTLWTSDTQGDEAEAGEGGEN
In short: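 NIH-3T3 cells were transfected with the BRET sensor two days beforehand, then replated on poly-L-ornithine-coated plates and grown 24 h at 37 °C. Medium was then replaced with Krebs buffer (pH 7.4). Z′-score was calculated to judge HTS robustness.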

NIH-3T3 cells = test: Hoechst/propidium iodide cell death assay in NIH-3T3; assay type: cell-based; details: for cytotoxicity at 20 µM: Mus musculus, NIH3T3, 24 h, read-out: Percentage of cell death % 24h NIH3t3
Source text: (§1) A high-content imaging system (PerkinElmer; Operetta CLS), was used to quantify cell death and apoptosis by calculating the number of propidium iodide-positive cells relative to Hoechst-positive cells, and the number of Annexin V-positive cells relative to Hoechst-positive cells, respectively.

HT-29 cells = test: Hoechst/propidium iodide cell death assay in HT-29; assay type: cell-based, human; details: for %Cell death HT-29: time not given; for cytotoxicity at 20 µM: Homo sapiens
Source text: as §1

Caco-2 cells = assay type: cell-based; details: for Percentage of cell death % 24h CACO-2: 20 µM; for Percentage of cell death % 48h, Caco-2: 20 μM
Source text: as §1

[2] = test system: HT-29 and Caco-2 CRC cells; test: Cell death in CRC cells, statements covering both HT-29 and Caco-2 (screen at 20 µM, dose-response); assay type: cell-based, human
Experimental: Cells were plated at a density of 20,000 cells/well into 96-well plates (PerkinElmer; #6055302) and incubated overnight at 37 °C before the addition of the drugs. One hour prior to imaging, Hoechst 33342 (Invitrogen, #H3570) and propidium iodide (Invitrogen; #P3566) were added to the wells to achieve final concentrations of 50 ng/ml and 0.5 μg/ml, respectively. To measure apoptosis, AlexaFluor 488-conjugated Annexin V (ThermoFisher, Massachusetts, USA; #A13201) was also added at a dilution of 1:400 from the commercial stock. A high-content imaging system (PerkinElmer; Operetta CLS), was used to quantify cell death and apoptosis by calculating the number of propidium iodide-positive cells relative to Hoechst-positive cells, and the number of Annexin V-positive cells relative to Hoechst-positive cells, respectively. To assess caspase-dependent apoptosis, cells were pre-treated for 30 min with the caspase inhibitor Z-VAD-FMK (BD Biosciences, New Jersey, USA; #550377; 20 μM) or the negative control Z-FA-FMK (BD Biosciences; #550411; 20 μM) prior to the incubation of drugs.

[3] = NIH-3T3 cells, hits from the primary screen
[4] = NIH-3T3 expressing BRET sensor, 20 µM, 3 h
[5] = HT-29, 24 h, 20 µM, 24 h, read-out: Percentage of cell death % 24h HT-29
[6] = HT-29, 48 h, HT-29, 48h, 20 μM, read-out: Percentage of cell death % 48h, HT-29

Molecule	inhibition [1, 3] [%]	inhibition at 20 µM [1, 4] [%]	cytotoxicity at 20 µM (NIH-3T3 cells; 20 µM, 24 h) [%]	Percentage of cell death % 48h, NIH3T3 (NIH-3T3 cells) [%]	%Cell death HT-29 (HT-29 cells; HT-29) [%]	cytotoxicity at 20 µM (HT-29 cells; [5]) [%]	cytotoxicity at 20 µM (HT-29 cells; [6]) [%]	Percentage of cell death % 24h CACO-2 (Caco-2 cells) [%]	Percentage of cell death % 48h, Caco-2 (Caco-2 cells) [%]	BRET reduction on NIH-3T3 [1, 3]	further results
CC(C)(C)C#Cc1cc(N(C(=O)[C@H]2CC[C@H](C)CC2)[C@H]2CC[C@H](O)CC2)c(C(=O)O)s1 [VX-222 (VCH-222, Lomibuvir), Lomibuvir]	41.6	41.6	5.5	38.6762	78.5	3.68	78.5	4.951	36.3165		%Cell death Caco-2 (Caco-2 cells; time not given, text says 48 h): 36.3%; Lowest concentration that significantly induced cell death ([2]; dose-response 2.5-20 µM in HT-29 and Caco-2): 5 µM; Efficacy in the magnitude of cell death attained ([2]; dose-response in CRC cells): inferior to other candidates
CCOC(=O)N1CCC(=C2c3ccc(Cl)cc3CCc3cccnc32)CC1 [Loratadine]	25.5	25.5	9.83	16.5359		0.925	3.3	3.76	3.356		
CCc1cc(/C(C)=N/OCc2ccc(C3CCCCC3)c(C(F)(F)F)c2)ccc1CN1CC(C(=O)O)C1 [BAF312 (Siponimod), Siponimod]	28.7	28.7	0.738	0.7911		0.683	1.58	2.6196	2.567		
COc1cc2nccc(Oc3ccc(NC(=O)Nc4cc(C)on4)c(Cl)c3)c2cc1OC [Tivozanib (AV-951), Tivozanib]	26.5	26.5	10.8	31.2285		1.65	23	5.391	6.001		
C[C@H](CCC(=O)O)[C@H]1CC[C@H]2[C@@H]3CC[C@@H]4C[C@H](O)CC[C@]4(C)[C@H]3CC[C@]12C [Lithocholic Acid]	40.1	40.1	2.68	0.3149		0.614	2.06	2.024	1.756		
Cl.Cl.Fc1ccc(C(c2ccc(F)cc2)N2CCN(C/C=C/c3ccccc3)CC2)cc1 [Flunarizine 2HCl]				0.5715				3.891	3.726	36.4286	BRET reduction on NIH-3T3 [1, 4]: 36.4286; Percentage of cell death % 24h NIH3t3 (NIH-3T3 cells; 20 µM, 24 h): 0.377%; Percentage of cell death % 24h HT-29 (HT-29 cells; 20 µM, 24 h): 0.7908%; Percentage of cell death % 48h, HT-29 (HT-29 cells; HT-29, 48h, 20 μM): 1.34%
Ivermectin				70.901	78.9			4.453	5.173	41.4556	BRET reduction on NIH-3T3 [1, 4]: 41.4556; Percentage of cell death % 24h NIH3t3 (NIH-3T3 cells; 20 µM, 24 h): 38.0218%; Percentage of cell death % 24h HT-29 (HT-29 cells; 20 µM, 24 h): 6.036%; Percentage of cell death % 48h, HT-29 (HT-29 cells; HT-29, 48h, 20 μM): 78.9396%; %Cell death Caco-2 (Caco-2 cells; time not given, text says 48 h): 5.2%
Cc1ccc(C(=O)Nc2ccc(CN3CCN(C)CC3)c(C(F)(F)F)c2)cc1C#Cc1cnc2cccnn12 [Ponatinib (AP24534), Ponatinib]				54.2208				28.4678	42.5244	44.6783	inhibition at 20 µM [1]: 44.7%; cytotoxicity at 20 µM (NIH-3T3 cells): 73.5%; cytotoxicity at 20 µM (HT-29 cells; HT-29, 24 h, read-out: Percentage of cell death % 24h HT-29): 56.7%; cytotoxicity at 20 µM (HT-29 cells; HT-29, 48 h, read-out: Percentage of cell death % 48h, HT-29): 83.2%
CO[C@H]1C[C@H](O[C@H]2[C@H](C)O[C@@H](O[C@@H]3/C(C)=C/C[C@@H]4C[C@@H](C[C@]5(C=C[C@H](C)[C@@H](C6CCCCC6)O5)O4)OC(=O)[C@@H]4C=C(C)[C@@H](O)[C@H]5OC/C(=C\C=C\[C@@H]3C)[C@]54O)C[C@@H]2OC)O[C@@H](C)[C@@H]1O [Doramectin]				58.749	51.6					36.2699	BRET reduction on NIH-3T3 [1, 4]: 36.2699; Percentage of cell death % 24h NIH3t3 (NIH-3T3 cells; 20 µM, 24 h): 51.7189%; Percentage of cell death % 24h HT-29 (HT-29 cells; 20 µM, 24 h): 11.0069%; Percentage of cell death % 48h, HT-29 (HT-29 cells; HT-29, 48h, 20 μM): 51.5756%; %Cell death Caco-2 (Caco-2 cells): 32.3%
CC1=C(C(=O)OC(C)C)C(c2cccc([N+](=O)[O-])c2)C(C(=O)OC2CN(C(c3ccccc3)c3ccccc3)C2)=C(N)N1 (stereo not drawn) [Azelnidipine]	40.2	40.2	75.6	71.6636	91.6	66.4	91.6	9.563	13.6799		%Cell death Caco-2 (Caco-2 cells; time not given, text says 48 h): 13.7%
Cn1ncc(Cl)c1-c1cc(C(=O)N[C@H](CN)Cc2cccc(F)c2)sc1Cl [Afuresertib]	27.8	27.8	57.7	38.6266		3.99	37.5	23.3726	43.2801		
